Target: P. falciparum apicoplast DNA polymerase (Pf-apPOL) (Plasmodium falciparum, UniProt Q8ILY1)
Experiment: Fluorescence-based high-throughput DNA polymerase assay (molecular beacon), primary screen and dose-response;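 on % inhibition ApPOL 90': test concentration in µM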;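 on % inhibition apPOL 180': test concentration in µM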
Type: biochemical
Summary of the method: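 Single-point screening used 10 µM compound with 20 nM polymerase, 20 nM hairpin substrate and 6 µM dNTPs for 90 min at 25 °C. Confirmatory titrations (2.5–80 µM) followed fluorescence at three times, and IC50 was derived from a fit including a cooperativity term n.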

[1] = supplemental file 2, sheet IC50 nontoxic compounds; Pf-apPOL

Chain of P. falciparum apicoplast DNA polymerase (Pf-apPOL) (Q8ILY1 entry or part of it): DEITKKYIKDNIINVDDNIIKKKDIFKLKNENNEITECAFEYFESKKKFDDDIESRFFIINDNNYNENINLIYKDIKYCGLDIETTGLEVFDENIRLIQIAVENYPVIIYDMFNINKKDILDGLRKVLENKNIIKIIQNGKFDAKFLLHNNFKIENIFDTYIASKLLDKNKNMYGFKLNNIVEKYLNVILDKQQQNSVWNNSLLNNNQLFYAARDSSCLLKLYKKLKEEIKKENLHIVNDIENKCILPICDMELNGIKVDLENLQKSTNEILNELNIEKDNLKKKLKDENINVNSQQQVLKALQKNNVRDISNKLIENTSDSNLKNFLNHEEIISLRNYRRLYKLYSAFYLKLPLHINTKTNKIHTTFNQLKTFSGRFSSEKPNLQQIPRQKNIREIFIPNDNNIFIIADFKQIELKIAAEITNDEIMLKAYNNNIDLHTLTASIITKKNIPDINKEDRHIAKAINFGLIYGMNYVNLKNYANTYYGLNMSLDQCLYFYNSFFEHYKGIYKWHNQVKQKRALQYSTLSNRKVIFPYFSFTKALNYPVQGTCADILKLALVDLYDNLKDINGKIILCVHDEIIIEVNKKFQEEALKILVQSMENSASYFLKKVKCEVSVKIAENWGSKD

O=C(Nc1nnc(-c2ccno2)o1)c1ccc2ncsc2c1 [Molecule 62, O=C(c1ccc2c(c1)scn2)Nc1nnc(o1)c1ccno1]
DNA Pol ('DNA Pol'; screening value, unit not given; 90 min, 10 µM): 57
% inhibition Apo pol 10' (DRC-1; 10'; concentration 2.5): 10.861%
% inhibition Apo pol 10' (DRC-1; 10'; concentration 5): 15.6525%
% inhibition Apo pol 10' (DRC-1; 10'; concentration 10): 33.6921%
% inhibition Apo pol 10' (DRC-1; 10'; concentration 20): 64.2838%
% inhibition Apo pol 10' (DRC-1; 10'; concentration 40): 78.1502%
% inhibition Apo pol 10' (DRC-1; 10'; concentration 80): 81.399%
% inhibition Apol 90' (DRC-1; 90'; concentration 2.5): -2.7392%
% inhibition Apol 90' (DRC-1; 90'; concentration 5): 1.406%
% inhibition Apol 90' (DRC-1; 90'; concentration 10): 10.5152%
% inhibition Apol 90' (DRC-1; 90'; concentration 20): 33.263%
% inhibition Apol 90' (DRC-1; 90'; concentration 40): 51.9867%
% inhibition Apol 90' (DRC-1; 90'; concentration 80): 68.6824%
% inhibition apPOL 180' (DRC-1; 180'; concentration 2.5): -12.5523%
% inhibition apPOL 180' (DRC-1; 180'; concentration 5): -8.9419%
% inhibition apPOL 180' (DRC-1; 180'; concentration 10): -4.993%
% inhibition apPOL 180' (DRC-1; 180'; concentration 20): 10.6012%
% inhibition apPOL 180' (DRC-1; 180'; concentration 40): 29.0771%
% inhibition apPOL 180' (DRC-1; 180'; concentration 80): 50.4309%
% inhibition Apo pol 5' (DRC-2, 5', concentration 2.5): 9%
% inhibition Apo pol 5' (DRC-2, 5', concentration 5): 11%
% inhibition Apo pol 5' (DRC-2, 5', concentration 10): 38%
% inhibition Apo pol 5' (DRC-2, 5', concentration 20): 39%
% inhibition Apo pol 5' (DRC-2, 5', concentration 40): 37%
% inhibition Apo pol 5' (DRC-2, 5', concentration 80): 28%
% inhibition Apol 40' (DRC-2, 40', concentration 2.5): 6.5%
% inhibition Apol 40' (DRC-2, 40', concentration 5): 8%
% inhibition Apol 40' (DRC-2, 40', concentration 10): 36%
% inhibition Apol 40' (DRC-2, 40', concentration 20): 42%
% inhibition Apol 40' (DRC-2, 40', concentration 40): 53%
% inhibition Apol 40' (DRC-2, 40', concentration 80): 56%
% inhibition ApPOL 90' (DRC-2, 90', concentration 2.5): 4%
% inhibition ApPOL 90' (DRC-2, 90', concentration 5): 4%
% inhibition ApPOL 90' (DRC-2, 90', concentration 10): 29%
% inhibition ApPOL 90' (DRC-2, 90', concentration 20): 38%
% inhibition ApPOL 90' (DRC-2, 90', concentration 40): 54%
% inhibition ApPOL 90' (DRC-2, 90', concentration 80): 62%
% inhibition apPOL 180' (DRC-2, 180', concentration 2.5): -3%
% inhibition apPOL 180' (DRC-2, 180', concentration 5): -6%
% inhibition apPOL 180' (DRC-2, 180', concentration 10): 14%
% inhibition apPOL 180' (DRC-2, 180', concentration 20): 21%
% inhibition apPOL 180' (DRC-2, 180', concentration 40): 46%
% inhibition apPOL 180' (DRC-2, 180', concentration 80): 61%
% inhibition ApPOL 90' (conc 2.5 (unit not given); 90'; DRC-2): 4%
% inhibition ApPOL 90' (conc 5 (unit not given); 90'; DRC-2): 4%
% inhibition Apo pol 5' (conc 10 (unit not given); 5'; DRC-2): 38%
% inhibition ApPOL 90' (conc 20 (unit not given); 90'; DRC-2): 38%
DNA Pol (primary screen hit value, DNA Pol (186 hits); 90 min, 10 µM): 57

O=C(Nc1c2c(nn1-c1ccc(Oc3ccccc3)cc1)CSC2)c1ccco1 [KU0055927]
% inhibition Apo pol 10' (DRC-1; 10'; concentration 2.5): 13.8958%
% inhibition Apo pol 10' (DRC-1; 10'; concentration 5): 29.5283%
% inhibition Apo pol 10' (DRC-1; 10'; concentration 10): 43.1911%
% inhibition Apo pol 10' (DRC-1; 10'; concentration 20): 76.7664%
% inhibition Apo pol 10' (DRC-1; 10'; concentration 40): 85.1313%
% inhibition Apo pol 10' (DRC-1; 10'; concentration 80): 86.5336%
% inhibition Apol 90' (DRC-1; 90'; concentration 2.5): 4.683%
% inhibition Apol 90' (DRC-1; 90'; concentration 5): 16.7633%
% inhibition Apol 90' (DRC-1; 90'; concentration 10): 30.4357%
% inhibition Apol 90' (DRC-1; 90'; concentration 20): 68.2983%
% inhibition Apol 90' (DRC-1; 90'; concentration 40): 80.3407%
% inhibition Apol 90' (DRC-1; 90'; concentration 80): 86.0743%
% inhibition apPOL 180' (DRC-1; 180'; concentration 2.5): -2.927%
% inhibition apPOL 180' (DRC-1; 180'; concentration 5): 5.714%
% inhibition apPOL 180' (DRC-1; 180'; concentration 10): 15.8435%
% inhibition apPOL 180' (DRC-1; 180'; concentration 20): 54.9886%
% inhibition apPOL 180' (DRC-1; 180'; concentration 40): 72.0227%
% inhibition apPOL 180' (DRC-1; 180'; concentration 80): 82.6026%
% inhibition Apol 40' (DRC-2, 40', concentration 5 (unit not given)): 12%
% inhibition Apol 40' (DRC-2, 40', concentration 40 (unit not given)): 69%
% inhibition apPOL 180' (DRC-2, 180', concentration 40 (unit not given)): 69%
% inhibition Apo pol 5' (DRC-2; 5'; concentration 2.5): 8.44%
% inhibition Apo pol 5' (DRC-2; 5'; concentration 5): 12%
% inhibition Apo pol 5' (DRC-2; 5'; concentration 5 (unit not given)): 12%
% inhibition Apo pol 5' (DRC-2; 5'; concentration 10): 40%
% inhibition Apo pol 5' (DRC-2; 5'; concentration 20): 51%
% inhibition Apo pol 5' (DRC-2; 5'; concentration 40): 54%
% inhibition Apo pol 5' (DRC-2; 5'; concentration 80): 55%
% inhibition Apol 40' (DRC-2; 40'; concentration 2.5): 9%
% inhibition Apol 40' (DRC-2; 40'; concentration 5): 12%
% inhibition Apol 40' (DRC-2; 40'; concentration 10): 47%
% inhibition Apol 40' (DRC-2; 40'; concentration 20): 65%
% inhibition Apol 40' (DRC-2; 40'; concentration 40): 69%
% inhibition Apol 40' (DRC-2; 40'; concentration 80): 72%
% inhibition ApPOL 90' (DRC-2; 90'; concentration 2.5): 7%
% inhibition ApPOL 90' (DRC-2; 90'; concentration 5): 9.5%
% inhibition ApPOL 90' (DRC-2; 90'; concentration 10): 45%
% inhibition ApPOL 90' (DRC-2; 90'; concentration 20): 66%
% inhibition ApPOL 90' (DRC-2; 90'; concentration 40): 71%
% inhibition ApPOL 90' (DRC-2; 90'; concentration 80): 75%
% inhibition apPOL 180' (DRC-2; 180'; concentration 2.5): 4%
% inhibition apPOL 180' (DRC-2; 180'; concentration 5): 3.19%
% inhibition apPOL 180' (DRC-2; 180'; concentration 10): 35%
% inhibition apPOL 180' (DRC-2; 180'; concentration 20): 62%
% inhibition apPOL 180' (DRC-2; 180'; concentration 40): 69%
% inhibition apPOL 180' (DRC-2; 180'; concentration 80): 77%
DNA Pol (primary screen value of the 186 hits; unit not given; 90 min, 10 µM): 57
DNA Pol (primary screen value, head "DNA Pol", unit not given; 90 min, 10 µM): 57

Cc1ccc(-n2nnc(C(=O)O)c2-c2ccccn2)c(F)c1 [Molecule 54]
IC50 [1]: 14.5 µM

Cc1ccc(CNC(=O)c2cnn3c(O)cc(CSc4ccc(Cl)cc4)nc23)cc1 [Molecule 99]
IC50 [1]: 9.14 µM
